From ChEMBL document CHEMBL1138996, “Biological evaluation of isothiazoloquinolones containing aromatic heterocycles at the 7-position: In vitro activity of a series of potent antibacterial agents that are effective against methicillin-resistant Staphylococcus aureus” (Bioorg Med Chem Lett, 2006)
In brackets after ≈: the same amount, converted by molar mass.

What was measured:
Streptococcus pyogenes = assay: Antibacterial activity against Streptococcus pyogenes ATCC 19615; type: functional
Streptococcus pneumoniae = assay: Antibacterial activity against Streptococcus pneumoniae ATCC 49619; type: functional
HEp-2 = assay: Cytotoxicity against Hep2 cell line; type: functional; conditions: Homo sapiens
Moraxella catarrhalis = assay: Antibacterial activity against Moraxella catarrhalis ATCC 8176; type: functional
Klebsiella pneumoniae = assay: Antibacterial activity against Klebsiella pneumoniae ATCC 13883; type: functional
Staphylococcus aureus [1] = assay: Antibacterial activity against Staphylococcus aureus ATCC 29213; type: functional
[2] = tested on: Stenotrophomonas maltophilia; assay: Antibacterial activity against Stenotrophomonas maltophilia ATCC 13637; type: functional
Salmonella typhimurium = assay: Antibacterial activity against Salmonella Typhimurium ATCC 14028; type: functional, Salmonella enterica subsp. enterica serovar Typhimurium; conditions: Salmonella enterica
Haemophilus influenzae = assay: Antibacterial activity against Haemophilus influenzae type b ACH-0056; type: functional
Enterococcus faecium = assay: Antibacterial activity against Enterococcus faecium ATCC 49032; type: functional
Staphylococcus aureus [3] = assay: Antibacterial activity against methicillin-resistant Staphylococcus aureus ATCC 700699; type: functional
Enterococcus faecalis = assay: Antibacterial activity against Enterococcus faecalis ATCC 29212; type: functional
[4] = target: DNA topoisomerase 4 subunit A (Staphylococcus aureus, UniProt P0C1U9); assay: Inhibitory activity against Staphylococcus aureus ATCC 29213 wild type Topo 4
Escherichia coli = assay: Antibacterial activity against Escherichia coli ATCC 25922; type: functional
Pseudomonas aeruginosa = assay: Antibacterial activity against Pseudomonas aeruginosa ATCC 27853; type: functional

DNA topoisomerase 4 subunit A, sequence (P0C1U9 whole entry): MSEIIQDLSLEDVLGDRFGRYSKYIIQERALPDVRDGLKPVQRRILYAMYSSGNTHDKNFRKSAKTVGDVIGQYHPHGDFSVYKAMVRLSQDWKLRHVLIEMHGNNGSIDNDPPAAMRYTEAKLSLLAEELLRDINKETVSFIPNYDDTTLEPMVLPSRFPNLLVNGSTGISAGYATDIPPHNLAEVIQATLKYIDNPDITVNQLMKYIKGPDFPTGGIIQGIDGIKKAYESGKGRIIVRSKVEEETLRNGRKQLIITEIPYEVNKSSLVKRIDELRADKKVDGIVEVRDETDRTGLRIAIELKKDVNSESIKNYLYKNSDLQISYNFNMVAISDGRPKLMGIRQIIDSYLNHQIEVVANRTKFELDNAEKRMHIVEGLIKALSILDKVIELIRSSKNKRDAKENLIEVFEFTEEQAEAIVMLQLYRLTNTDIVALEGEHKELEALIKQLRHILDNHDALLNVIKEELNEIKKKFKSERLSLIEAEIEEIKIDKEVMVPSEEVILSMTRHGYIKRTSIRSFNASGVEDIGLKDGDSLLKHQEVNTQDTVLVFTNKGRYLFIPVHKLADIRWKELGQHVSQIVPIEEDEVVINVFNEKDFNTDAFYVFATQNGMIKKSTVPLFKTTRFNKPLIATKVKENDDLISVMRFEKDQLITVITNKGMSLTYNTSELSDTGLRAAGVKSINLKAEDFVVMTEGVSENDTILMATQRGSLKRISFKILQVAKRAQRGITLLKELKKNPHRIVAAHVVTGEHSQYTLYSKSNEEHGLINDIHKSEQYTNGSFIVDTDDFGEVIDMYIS

O=C(O)c1cn(C2CC2)c2cc(N3CCNCC3)c(F)cc2c1=O [CIPROFLOXACIN] showed an MIC (Streptococcus pyogenes) of 0.28 µg/mL (≈ 0.845 µM), an MIC (Streptococcus pneumoniae) of 0.56 µg/mL (≈ 1.69 µM) and a CC50 (HEp-2) greater than 100 µM. It also gave an MIC (Moraxella catarrhalis) of 0.033 µg/mL (≈ 0.0996 µM), an MIC (Klebsiella pneumoniae) of 0.033 µg/mL (≈ 0.0996 µM) and an MIC (Staphylococcus aureus [1]) of 0.22 µg/mL (≈ 0.664 µM). For the same compound, the MIC [2] was 0.28 µg/mL (≈ 0.845 µM), the MIC (Salmonella typhimurium) was 0.018 µg/mL (≈ 0.0543 µM) and the MIC (Haemophilus influenzae) was 0.018 µg/mL (≈ 0.0543 µM). It also gave an MIC (Enterococcus faecium) of 2 µg/mL (≈ 6.04 µM), an MIC (Staphylococcus aureus [3]) of 32 µg/mL (≈ 96.6 µM) and an MIC (Enterococcus faecalis) of 0.56 µg/mL (≈ 1.69 µM).
O=c1[nH]sc2c1c(=O)c1cc(F)c(-c3cccc4cnccc34)cc1n2C1CC1 was tested, and the CC50 (HEp-2) was 45 µM, the MIC (Staphylococcus aureus [1]) was 0.016 µg/mL (≈ 0.0397 µM) and the IC50 [4] was 23 µM. For the same compound, the MIC (Escherichia coli) was 0.061 µg/mL (≈ 0.151 µM) and the MIC (Staphylococcus aureus [3]) was greater than 64 µg/mL.
COc1ncc(-c2cc3c(cc2F)c(=O)c2c(=O)[nH]sc2n3C2CC2)c(OC)n1 was tested, and the MIC (Streptococcus pyogenes) was 0.079 µg/mL (≈ 0.191 µM), the MIC (Streptococcus pneumoniae) was 0.079 µg/mL (≈ 0.191 µM) and the CC50 (HEp-2) was greater than 100 µM. For the same compound, the MIC (Moraxella catarrhalis) was 0.021 µg/mL (≈ 0.0507 µM), the MIC (Klebsiella pneumoniae) was 0.5 µg/mL (≈ 1.21 µM) and the MIC (Staphylococcus aureus [1]) was 0.019 µg/mL (≈ 0.0458 µM). For the same compound, the MIC [2] was 2 µg/mL (≈ 4.83 µM), the MIC (Pseudomonas aeruginosa) was greater than 64 µg/mL and the MIC (Salmonella typhimurium) was 0.125 µg/mL (≈ 0.302 µM). The MIC (Haemophilus influenzae) was 0.14 µg/mL (≈ 0.338 µM), the IC50 [4] was 42 µM and the MIC (Enterococcus faecium) was 0.17 µg/mL (≈ 0.41 µM). It also gave an MIC (Escherichia coli) of 0.14 µg/mL (≈ 0.338 µM), an MIC (Staphylococcus aureus [3]) of 1 µg/mL (≈ 2.41 µM) and an MIC (Enterococcus faecalis) of 0.058 µg/mL (≈ 0.14 µM).
With O=c1[nH]sc2c1c(=O)c1cc(F)c(-c3ccc4cnccc4c3)cc1n2C1CC1 the CC50 (HEp-2) was 22 µM, the MIC (Staphylococcus aureus [1]) was 0.002 µg/mL (≈ 0.00496 µM) and the IC50 [4] was 3.6 µM. The MIC (Escherichia coli) was 0.13 µg/mL (≈ 0.322 µM) and the MIC (Staphylococcus aureus [3]) was 0.5 µg/mL (≈ 1.24 µM).
Work on O=c1[nH]sc2c1c(=O)c1cc(F)c(-c3cc4ccccc4[nH]3)cc1n2C1CC1 yielded a CC50 (HEp-2) of 9 µM, an MIC (Staphylococcus aureus [1]) of 0.06 µg/mL (≈ 0.153 µM) and an IC50 [4] of 3.3 µM. The MIC (Escherichia coli) was 1 µg/mL (≈ 2.55 µM) and the MIC (Staphylococcus aureus [3]) was 4 µg/mL (≈ 10.2 µM).
With O=c1[nH]sc2c1c(=O)c1cc(F)c(-c3ccc4cncnc4c3)cc1n2C1CC1 the CC50 (HEp-2) was greater than 100 µM, the MIC (Staphylococcus aureus [1]) was 0.06 µg/mL (≈ 0.148 µM) and the IC50 [4] was 29 µM. The MIC (Escherichia coli) was 4 µg/mL (≈ 9.89 µM) and the MIC (Staphylococcus aureus [3]) was greater than 64 µg/mL.
In the case of COc1c(N2C[C@@H]3CCCN[C@@H]3C2)c(F)cc2c(=O)c(C(=O)O)cn(C3CC3)c12 [MOXIFLOXACIN], the MIC (Streptococcus pyogenes) is reported as 0.061 µg/mL (≈ 0.152 µM), the MIC (Streptococcus pneumoniae) is reported as 0.125 µg/mL (≈ 0.311 µM) and the CC50 (HEp-2) is reported as greater than 100 µM. The MIC (Moraxella catarrhalis) was 0.061 µg/mL (≈ 0.152 µM), the MIC (Klebsiella pneumoniae) was 0.031 µg/mL (≈ 0.0772 µM) and the MIC (Staphylococcus aureus [1]) was 0.061 µg/mL (≈ 0.152 µM). It also gave an MIC [2] of 0.031 µg/mL (≈ 0.0772 µM), an MIC (Pseudomonas aeruginosa) of 1 µg/mL (≈ 2.49 µM) and an MIC (Salmonella typhimurium) of 0.061 µg/mL (≈ 0.152 µM). It also gave an MIC (Haemophilus influenzae) of 0.013 µg/mL (≈ 0.0324 µM), an IC50 [4] of 0.8 µM and an MIC (Enterococcus faecium) of 0.125 µg/mL (≈ 0.311 µM). For the same compound, the MIC (Escherichia coli) was 0.013 µg/mL (≈ 0.0324 µM), the MIC (Staphylococcus aureus [3]) was 2 µg/mL (≈ 4.98 µM) and the MIC (Enterococcus faecalis) was 0.125 µg/mL (≈ 0.311 µM).
In the case of O=c1[nH]sc2c1c(=O)c1cc(F)c(-c3ccc4ncccc4c3)cc1n2C1CC1, the CC50 (HEp-2) is reported as greater than 100 µM, the MIC (Staphylococcus aureus [1]) is reported as 0.0032 µg/mL (≈ 0.00793 µM) and the IC50 [4] is reported as 3.2 µM. For the same compound, the MIC (Escherichia coli) was 0.13 µg/mL (≈ 0.322 µM) and the MIC (Staphylococcus aureus [3]) was 1 µg/mL (≈ 2.48 µM).
Cc1ncccc1-c1cc2c(cc1F)c(=O)c1c(=O)[nH]sc1n2C1CC1 showed a CC50 (HEp-2) of 12 µM, an MIC (Staphylococcus aureus [1]) of 0.13 µg/mL (≈ 0.354 µM) and an IC50 [4] of 3.5 µM. For the same compound, the MIC (Escherichia coli) was 0.51 µg/mL (≈ 1.39 µM) and the MIC (Staphylococcus aureus [3]) was 1 µg/mL (≈ 2.72 µM).
With O=c1[nH]sc2c1c(=O)c1cc(F)c(-c3ccnc(F)c3)cc1n2C1CC1 the CC50 (HEp-2) was greater than 100 µM, the MIC (Staphylococcus aureus [1]) was 0.0074 µg/mL (≈ 0.0199 µM) and the IC50 [4] was 19 µM. For the same compound, the MIC (Escherichia coli) was 0.059 µg/mL (≈ 0.159 µM) and the MIC (Staphylococcus aureus [3]) was 1 µg/mL (≈ 2.69 µM).
Work on O=c1[nH]sc2c1c(=O)c1cc(F)c(-c3ccc4[nH]ccc4c3)cc1n2C1CC1 yielded a CC50 (HEp-2) greater than 82 µM, an MIC (Staphylococcus aureus [1]) of 0.004 µg/mL (≈ 0.0102 µM) and an IC50 [4] greater than 40 µM. The MIC (Escherichia coli) was 0.059 µg/mL (≈ 0.151 µM) and the MIC (Staphylococcus aureus [3]) was 2 µg/mL (≈ 5.11 µM).
Cc1ccnc(-c2cc3c(cc2F)c(=O)c2c(=O)[nH]sc2n3C2CC2)c1 showed a CC50 (HEp-2) greater than 100 µM, an MIC (Staphylococcus aureus [1]) of 0.06 µg/mL (≈ 0.163 µM) and an IC50 [4] of 16 µM. It also gave an MIC (Escherichia coli) of 0.25 µg/mL (≈ 0.68 µM) and an MIC (Staphylococcus aureus [3]) of 32 µg/mL (≈ 87.1 µM).
In the case of O=c1[nH]sc2c1c(=O)c1cc(F)c(-c3ccc(F)nc3)cc1n2C1CC1, the MIC (Streptococcus pyogenes) is reported as 0.059 µg/mL (≈ 0.159 µM), the MIC (Streptococcus pneumoniae) is reported as 0.125 µg/mL (≈ 0.337 µM) and the CC50 (HEp-2) is reported as greater than 100 µM. The MIC (Moraxella catarrhalis) was 0.0037 µg/mL (≈ 0.00996 µM), the MIC (Klebsiella pneumoniae) was 0.125 µg/mL (≈ 0.337 µM) and the MIC (Staphylococcus aureus [1]) was 0.015 µg/mL (≈ 0.0404 µM). The MIC [2] was 1 µg/mL (≈ 2.69 µM), the MIC (Pseudomonas aeruginosa) was 0.5 µg/mL (≈ 1.35 µM) and the MIC (Salmonella typhimurium) was 0.125 µg/mL (≈ 0.337 µM). The MIC (Haemophilus influenzae) was 0.03 µg/mL (≈ 0.0808 µM), the IC50 [4] was 12 µM and the MIC (Enterococcus faecium) was 0.11 µg/mL (≈ 0.296 µM). For the same compound, the MIC (Escherichia coli) was 0.03 µg/mL (≈ 0.0808 µM), the MIC (Staphylococcus aureus [3]) was 2 µg/mL (≈ 5.39 µM) and the MIC (Enterococcus faecalis) was 0.125 µg/mL (≈ 0.337 µM).
With O=c1[nH]sc2c1c(=O)c1cc(F)c(-c3cccc4cccnc34)cc1n2C1CC1 the CC50 (HEp-2) was 79 µM, the MIC (Staphylococcus aureus [1]) was 0.13 µg/mL (≈ 0.322 µM) and the IC50 [4] was greater than 40 µM. It also gave an MIC (Escherichia coli) of 0.75 µg/mL (≈ 1.86 µM) and an MIC (Staphylococcus aureus [3]) of 16 µg/mL (≈ 39.7 µM).
With NCc1ccc(-c2cc3c(cc2F)c(=O)c2c(=O)[nH]sc2n3C2CC2)cn1 the CC50 (HEp-2) was greater than 100 µM, the MIC (Staphylococcus aureus [1]) was 0.13 µg/mL (≈ 0.34 µM) and the IC50 [4] was 0.7 µM. The MIC (Escherichia coli) was 0.059 µg/mL (≈ 0.154 µM) and the MIC (Staphylococcus aureus [3]) was 32 µg/mL (≈ 83.7 µM).
With O=c1[nH]sc2c1c(=O)c1cc(F)c(-c3cncnc3)cc1n2C1CC1 the CC50 (HEp-2) was 18 µM, the MIC (Staphylococcus aureus [1]) was 0.025 µg/mL (≈ 0.0705 µM) and the IC50 [4] was 3.3 µM. For the same compound, the MIC (Escherichia coli) was 0.12 µg/mL (≈ 0.339 µM) and the MIC (Staphylococcus aureus [3]) was 8 µg/mL (≈ 22.6 µM).
Compound O=c1[nH]sc2c1c(=O)c1cc(F)c(-c3ccnc(CO)c3)cc1n2C1CC1 has a CC50 (HEp-2) greater than 100 µM, an MIC (Staphylococcus aureus [1]) of 0.034 µg/mL (≈ 0.0887 µM) and an IC50 [4] of 4.8 µM. It also gave an MIC (Escherichia coli) of 0.14 µg/mL (≈ 0.365 µM) and an MIC (Staphylococcus aureus [3]) of 32 µg/mL (≈ 83.5 µM).
In the case of COc1ccc(-c2cc3c(cc2F)c(=O)c2c(=O)[nH]sc2n3C2CC2)c(OC)n1, the CC50 (HEp-2) is reported as 98 µM, the MIC (Staphylococcus aureus [1]) is reported as 0.046 µg/mL (≈ 0.111 µM) and the IC50 [4] is reported as 16 µM. For the same compound, the MIC (Escherichia coli) was 2 µg/mL (≈ 4.84 µM) and the MIC (Staphylococcus aureus [3]) was 8 µg/mL (≈ 19.4 µM).
O=c1[nH]sc2c1c(=O)c1cc(F)c(-c3cncc(C4CCCCN4)c3)cc1n2C1CC1 (stereo unspecified) was tested, and the CC50 (HEp-2) was 6 µM, the MIC (Staphylococcus aureus [1]) was 0.12 µg/mL (≈ 0.275 µM) and the IC50 [4] was 5 µM. The MIC (Escherichia coli) was 0.46 µg/mL (≈ 1.05 µM) and the MIC (Staphylococcus aureus [3]) was 8 µg/mL (≈ 18.3 µM).
Work on O=c1[nH]sc2c1c(=O)c1cc(F)c(-c3cccnc3F)cc1n2C1CC1 yielded a CC50 (HEp-2) greater than 100 µM, an MIC (Staphylococcus aureus [1]) of 0.015 µg/mL (≈ 0.0404 µM) and an IC50 [4] of 2.4 µM. For the same compound, the MIC (Escherichia coli) was 0.015 µg/mL (≈ 0.0404 µM).
